This experiment addresses human VMAT2 (Homo sapiens, UniProt Q05940). The experiment in a line: [3H]-α-DHTBZ radioligand binding in vesicles from human VMAT2-transfected HEK293 cells. The settings on record: read-out: IC50 [3H]-α-DHTBZ binding.

human VMAT2, sequence (Q05940 whole entry): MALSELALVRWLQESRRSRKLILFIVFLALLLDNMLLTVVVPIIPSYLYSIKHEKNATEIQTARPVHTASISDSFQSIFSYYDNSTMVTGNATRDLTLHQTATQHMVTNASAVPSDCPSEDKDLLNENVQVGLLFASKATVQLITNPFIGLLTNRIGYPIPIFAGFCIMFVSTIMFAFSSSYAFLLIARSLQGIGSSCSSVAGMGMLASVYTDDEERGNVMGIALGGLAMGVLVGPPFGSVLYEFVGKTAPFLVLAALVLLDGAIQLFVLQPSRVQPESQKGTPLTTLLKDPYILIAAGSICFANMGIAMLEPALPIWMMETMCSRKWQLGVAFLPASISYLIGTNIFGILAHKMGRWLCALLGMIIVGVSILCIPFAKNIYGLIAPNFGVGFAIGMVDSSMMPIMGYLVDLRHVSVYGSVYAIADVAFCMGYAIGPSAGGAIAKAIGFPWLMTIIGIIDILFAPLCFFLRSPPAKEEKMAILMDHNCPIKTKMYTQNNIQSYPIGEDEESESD

By IC50 is commonly meant the concentration needed to halve the response being measured. Turning to `COc1cc2c(cc1OC)C1CC(=O)C(CC(C)C)CN1CC2` (stereo not shown) [TBZ, Tetrabenazine], the 50% inhibitory concentration (IC50) came to 19.2 nM.

For the origin of these results see PMC13226201 (Frontiers in Pharmacology, 2026).
